{"source": "ChEMBL document CHEMBL3885881", "about": "“DrugMatrix”", "organism": "Rattus norvegicus", "assay": "DrugMatrix - Regimen: Daily Repeat", "assay_type": "toxicity, organism-based, Sprague-Dawley", "design": "regimen Daily Repeat, gender Male, age 6-8 weeks", "details": "in vivo, iv, 0 mg/kg, dose level Control, vehicle 100 % SALINE; for ABSOLUTE BASOPHIL / ABSOLUTE EOSINOPHIL / ABSOLUTE LYMPHOCYTE / ABSOLUTE MONOCYTE / ABSOLUTE SEGMENTED NEUTROPHIL / BASOPHIL / EOSINOPHIL / ERYTHROCYTE COUNT / HEMATOCRIT / HEMOGLOBIN / LEUKOCYTE COUNT / LYMPHOCYTE / MEAN CORPUSCULAR HEMOGLOBIN / MEAN CORPUSCULAR HEMOGLOBIN CONCENTRATION / MEAN CORPUSCULAR VOLUME / MONOCYTE / NEUTROPHIL / NUCLEATED RED BLOOD CELLS / PLATELET COUNT: tissue Blood; for ALANINE AMINOTRANSFERASE / ALBUMIN / ALKALINE PHOSPHATASE / ASPARTATE AMINOTRANSFERASE / BLOOD UREA NITROGEN / CARBON DIOXIDE / CHLORIDE / CHOLESTEROL / CREATINE PHOSPHOKINASE / CREATININE / GLUCOSE / LACTATE DEHYDROGENASE / LIPASE / PHOSPHORUS / POTASSIUM / SODIUM / TOTAL BILIRUBIN / TOTAL PROTEIN / URIC ACID: tissue Plasma"}
{"smiles": "CC[C@]1(O)C[C@H]2CN(CCc3c([nH]c4ccccc34)[C@@](C(=O)OC)(c3cc4c(cc3OC)N(C=O)[C@H]3[C@@](O)(C(=O)OC)[C@H](OC(C)=O)[C@]5(CC)C=CCN6CC[C@]43[C@@H]65)C2)C1", "note": "[VINCRISTINE]", "values": [{"measurement": "ABSOLUTE BASOPHIL", "setting": "72 h, time 3 day", "value": 0, "unit": "CELLS/uL"}, {"measurement": "ABSOLUTE EOSINOPHIL", "setting": "72 h, time 3 day", "value": 0, "unit": "CELLS/uL"}, {"measurement": "ABSOLUTE LYMPHOCYTE", "setting": "72 h, time 3 day", "value": 7637.67, "unit": "CELLS/uL"}, {"measurement": "ABSOLUTE MONOCYTE", "setting": "72 h, time 3 day", "value": 67.83, "unit": "CELLS/uL"}, {"measurement": "ABSOLUTE SEGMENTED NEUTROPHIL", "setting": "72 h, time 3 day", "value": 661.17, "unit": "CELLS/uL"}, {"measurement": "BASOPHIL", "setting": "72 h, time 3 day", "value": 0, "unit": "%"}, {"measurement": "EOSINOPHIL", "setting": "72 h, time 3 day", "value": 0, "unit": "%"}, {"measurement": "ERYTHROCYTE COUNT", "setting": "72 h, time 3 day", "value": 5.38, "unit": "x10E6/uL"}, {"measurement": "HEMATOCRIT", "setting": "72 h, time 3 day", "value": 33.67, "unit": "%"}, {"measurement": "HEMOGLOBIN", "setting": "72 h, time 3 day", "value": 12.88, "unit": "G/DL"}, {"measurement": "LEUKOCYTE COUNT", "setting": "72 h, time 3 day", "value": 8.37, "unit": "x10E3/uL"}, {"measurement": "LYMPHOCYTE", "setting": "72 h, time 3 day", "value": 91.17, "unit": "%"}, {"measurement": "MEAN CORPUSCULAR HEMOGLOBIN", "setting": "72 h, time 3 day", "value": 23.95, "unit": "pg"}, {"measurement": "MEAN CORPUSCULAR HEMOGLOBIN CONCENTRATION", "setting": "72 h, time 3 day", "value": 38.23, "unit": "G/DL"}, {"measurement": "MEAN CORPUSCULAR VOLUME", "setting": "72 h, time 3 day", "value": 62.6, "unit": "fL"}, {"measurement": "MONOCYTE", "setting": "72 h, time 3 day", "value": 0.83, "unit": "%"}, {"measurement": "NEUTROPHIL", "setting": "72 h, time 3 day", "value": 8, "unit": "%"}, {"measurement": "NUCLEATED RED BLOOD CELLS", "setting": "72 h, time 3 day", "value": "0.17 /100WBC"}, {"measurement": "PLATELET COUNT", "setting": "72 h, time 3 day", "value": 865, "unit": "x10E3/uL"}, {"measurement": "ALANINE AMINOTRANSFERASE", "setting": "72 h, time 3 day", "value": 51.67, "unit": "u/L"}, {"measurement": "ALBUMIN", "setting": "72 h, time 3 day", "value": 3.97, "unit": "G/DL"}, {"measurement": "ALKALINE PHOSPHATASE", "setting": "72 h, time 3 day", "value": 351.17, "unit": "u/L"}, {"measurement": "ASPARTATE AMINOTRANSFERASE", "setting": "72 h, time 3 day", "value": 82.33, "unit": "u/L"}, {"measurement": "BLOOD UREA NITROGEN", "setting": "72 h, time 3 day", "value": 15.17, "unit": "mg/dL"}, {"measurement": "CARBON DIOXIDE", "setting": "72 h, time 3 day", "value": 34.5, "unit": "mmol/L"}, {"measurement": "CHLORIDE", "setting": "72 h, time 3 day", "value": 100, "unit": "MEQ/L"}, {"measurement": "CHOLESTEROL", "setting": "72 h, time 3 day", "value": 80.33, "unit": "mg/dL"}, {"measurement": "CREATINE PHOSPHOKINASE", "setting": "72 h, time 3 day", "value": 316.5, "unit": "u/L"}, {"measurement": "CREATININE", "setting": "72 h, time 3 day", "value": 0.17, "unit": "mg/dL"}, {"measurement": "GLUCOSE", "setting": "72 h, time 3 day", "value": 149.17, "unit": "mg/dL"}, {"measurement": "LACTATE DEHYDROGENASE", "setting": "72 h, time 3 day", "value": 105.67, "unit": "u/L"}, {"measurement": "LIPASE", "setting": "72 h, time 3 day", "value": 9.5, "unit": "u/L"}, {"measurement": "PHOSPHORUS", "setting": "72 h, time 3 day", "value": 10.87, "unit": "mg/dL"}, {"measurement": "POTASSIUM", "setting": "72 h, time 3 day", "value": 5.47, "unit": "MEQ/L"}, {"measurement": "SODIUM", "setting": "72 h, time 3 day", "value": 144.2, "unit": "MEQ/L"}, {"measurement": "TOTAL BILIRUBIN", "setting": "72 h, time 3 day", "value": 0.2, "unit": "mg/dL"}, {"measurement": "TOTAL PROTEIN", "setting": "72 h, time 3 day", "value": 5.83, "unit": "G/DL"}, {"measurement": "URIC ACID", "setting": "72 h, time 3 day", "value": 0.83, "unit": "mg/dL"}, {"measurement": "ABSOLUTE BASOPHIL", "setting": "120 h, time 5 day", "value": 0, "unit": "CELLS/uL"}, {"measurement": "ABSOLUTE EOSINOPHIL", "setting": "120 h, time 5 day", "value": 0, "unit": "CELLS/uL"}, {"measurement": "ABSOLUTE LYMPHOCYTE", "setting": "120 h, time 5 day", "value": 6333.5, "unit": "CELLS/uL"}, {"measurement": "ABSOLUTE MONOCYTE", "setting": "120 h, time 5 day", "value": 38.83, "unit": "CELLS/uL"}, {"measurement": "ABSOLUTE SEGMENTED NEUTROPHIL", "setting": "120 h, time 5 day", "value": 661, "unit": "CELLS/uL"}, {"measurement": "BASOPHIL", "setting": "120 h, time 5 day", "value": 0, "unit": "%"}, {"measurement": "EOSINOPHIL", "setting": "120 h, time 5 day", "value": 0, "unit": "%"}, {"measurement": "ERYTHROCYTE COUNT", "setting": "120 h, time 5 day", "value": 5.44, "unit": "x10E6/uL"}, {"measurement": "HEMATOCRIT", "setting": "120 h, time 5 day", "value": 34.17, "unit": "%"}, {"measurement": "HEMOGLOBIN", "setting": "120 h, time 5 day", "value": 13.22, "unit": "G/DL"}, {"measurement": "LEUKOCYTE COUNT", "setting": "120 h, time 5 day", "value": 7.03, "unit": "x10E3/uL"}, {"measurement": "LYMPHOCYTE", "setting": "120 h, time 5 day", "value": 90.17, "unit": "%"}, {"measurement": "MEAN CORPUSCULAR HEMOGLOBIN", "setting": "120 h, time 5 day", "value": 24.38, "unit": "pg"}, {"measurement": "MEAN CORPUSCULAR HEMOGLOBIN CONCENTRATION", "setting": "120 h, time 5 day", "value": 38.7, "unit": "G/DL"}, {"measurement": "MEAN CORPUSCULAR VOLUME", "setting": "120 h, time 5 day", "value": 62.95, "unit": "fL"}, {"measurement": "MONOCYTE", "setting": "120 h, time 5 day", "value": 0.5, "unit": "%"}, {"measurement": "NEUTROPHIL", "setting": "120 h, time 5 day", "value": 9.33, "unit": "%"}, {"measurement": "NUCLEATED RED BLOOD CELLS", "setting": "120 h, time 5 day", "value": "0 /100WBC"}, {"measurement": "PLATELET COUNT", "setting": "120 h, time 5 day", "value": 924.33, "unit": "x10E3/uL"}, {"measurement": "ALANINE AMINOTRANSFERASE", "setting": "120 h, time 5 day", "value": 52.5, "unit": "u/L"}, {"measurement": "ALBUMIN", "setting": "120 h, time 5 day", "value": 3.97, "unit": "G/DL"}, {"measurement": "ALKALINE PHOSPHATASE", "setting": "120 h, time 5 day", "value": 364.83, "unit": "u/L"}, {"measurement": "ASPARTATE AMINOTRANSFERASE", "setting": "120 h, time 5 day", "value": 82.5, "unit": "u/L"}, {"measurement": "BLOOD UREA NITROGEN", "setting": "120 h, time 5 day", "value": 17, "unit": "mg/dL"}, {"measurement": "CARBON DIOXIDE", "setting": "120 h, time 5 day", "value": 32.33, "unit": "mmol/L"}, {"measurement": "CHLORIDE", "setting": "120 h, time 5 day", "value": 99.6, "unit": "MEQ/L"}, {"measurement": "CHOLESTEROL", "setting": "120 h, time 5 day", "value": 75.83, "unit": "mg/dL"}, {"measurement": "CREATINE PHOSPHOKINASE", "setting": "120 h, time 5 day", "value": 419, "unit": "u/L"}, {"measurement": "CREATININE", "setting": "120 h, time 5 day", "value": 0.21, "unit": "mg/dL"}, {"measurement": "GLUCOSE", "setting": "120 h, time 5 day", "value": 155, "unit": "mg/dL"}, {"measurement": "LACTATE DEHYDROGENASE", "setting": "120 h, time 5 day", "value": 111.5, "unit": "u/L"}, {"measurement": "LIPASE", "setting": "120 h, time 5 day", "value": 11.33, "unit": "u/L"}, {"measurement": "PHOSPHORUS", "setting": "120 h, time 5 day", "value": 10.32, "unit": "mg/dL"}, {"measurement": "POTASSIUM", "setting": "120 h, time 5 day", "value": 5.37, "unit": "MEQ/L"}, {"measurement": "SODIUM", "setting": "120 h, time 5 day", "value": 144.64, "unit": "MEQ/L"}, {"measurement": "TOTAL BILIRUBIN", "setting": "120 h, time 5 day", "value": 0.18, "unit": "mg/dL"}, {"measurement": "TOTAL PROTEIN", "setting": "120 h, time 5 day", "value": 5.98, "unit": "G/DL"}, {"measurement": "URIC ACID", "setting": "120 h, time 5 day", "value": 0.62, "unit": "mg/dL"}]}
